By EC50 is commonly meant the concentration at which the effect is half-maximal.

This note sets out measurements from article PMC6095626, “Screening of the Pathogen Box for inhibitors with dual efficacy against Giardia lamblia and Cryptosporidium parvum” (PLoS Neglected Tropical Diseases, 2018).

For assay [1], the system named is C. parvum (UGA1 Nluc expressing strain in HCT-8 cells). In words: microbe, parasite or virus in culture. Conditions: for Crypto (10 uM) Mean % inhibition: initial Pathogen Box screen, single concentration 10 µM, inhibition compared to DMSO wells; for EC50: Nluc C. parvum in HCT-8 cells, 48 hours, read-out: C. parvum EC50. In kind it is cell-based, Cryptosporidium parvum. In short, it runs like this: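 HCT-8 monolayers grown 48 h to 90–100% confluence, treated with compound at 10 μM or serial dilutions, then infected with bleach-treated UGA1 Nluc C. parvum oocysts.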

Assay [2] concerns G. lamblia trophozoites (luciferase expressing, WBC6). In words: microbe, parasite or virus in culture. The settings on record: for Giardia (16 uM) Mean % inhibition: initial Pathogen Box screen, single concentration 16 µM, inhibition compared to DMSO wells; for G. lamblia EC50: luciferase expressing G. lamblia trophozoites, 24 hours, D-luciferin bioluminescence read-out. In kind it is cell-based, Giardia lamblia. A digest of the protocol: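 Luciferase-expressing WBC6 trophozoites plated at 250,000 cells/mL, compounds added 1:1, incubated anaerobically (GasPak bags) at 37 °C for 24 h; viability read by bioluminescence, with duplicate plates counted on a MOXI Z cell counter. Metronidazole control serially diluted 1:2 from 40 μM.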

The structures appear in SMILES notation. “Also recorded” adds a separate entry of the source.

With `CO[C@@H](C(=O)N1Cc2[nH]nc(NC(=O)c3ccc(N4CCN(C)CC4)cc3)c2C1)c1ccccc1` [MMV676600], the “Crypto (10 uM) Mean % inhibition” value in assay [1] came out at 76%. Further, the “Giardia (16 uM) Mean % inhibition” value in assay [2] is 6%.
For the compound `CNC(=O)c1nn(C)c2c1C(C)(C)Cc1cnc(Nc3ccc(N4CCN(C)CC4)cc3)nc1-2` [MMV676602], in assay [1], the EC50 stood at 310 nM and the “Crypto (10 uM) Mean % inhibition” value turned out to be 85%. Also, in assay [2], the “Giardia (16 uM) Mean % inhibition” value came to 94% and the “G. lamblia EC50” value is given as “not effective; also recorded: not potent”.
Turning to `C[C@H]1COC2(CCN(c3nc(=O)c4cc(C(F)(F)F)cc([N+](=O)[O-])c4s3)CC2)O1` [MMV676603], the “Crypto (10 uM) Mean % inhibition” value in assay [1] was “X* (Mean or standard deviation are negative but not significantly different from the control to be a growth promoter)”. The “Giardia (16 uM) Mean % inhibition” value in assay [2] is listed as 77%.
As for `Cc1ncc(-c2ccnc(Nc3ccc(S(C)(=O)=O)cc3)n2)n1C(C)C` [MMV676604], in assay [1], the EC50 amounted to 2900 nM and the “Crypto (10 uM) Mean % inhibition” value was 92%. In assay [2], the “Giardia (16 uM) Mean % inhibition” value was 92% and the “G. lamblia EC50” value is “not effective; also recorded: not potent”.
Regarding `CC1(O)CC(c2nc(-c3ccc4ccc(-c5ccccc5)nc4c3)c3c(N)nccn23)C1` (stereo not shown) [MMV676605], the “Crypto (10 uM) Mean % inhibition” value in assay [1] is “X* (Mean or standard deviation are negative but not significantly different from the control to be a growth promoter)”. Moreover, the “Giardia (16 uM) Mean % inhibition” value in assay [2] is listed as 15%.
Regarding `O=C(c1ccc(NCCO)cc1)C1C[C@H]1c1ccc(Cl)cc1` (stereo partly shown) [MMV676877], the “Crypto (10 uM) Mean % inhibition” value in assay [1] was 70%. In assay [2], the “Giardia (16 uM) Mean % inhibition” value worked out at 8%.
Regarding `CCn1cnc2c(Nc3cc(F)cc(F)c3)nc(C#N)nc21` [MMV676881], the “Crypto (10 uM) Mean % inhibition” value in assay [1] was found to be 53%. In addition, the “Giardia (16 uM) Mean % inhibition” value in assay [2] is listed as 9%.
Take `NC(=O)c1cc(-c2ccsc2)ccc1OCCOc1ccccc1` [MMV687138]: in assay [1], the “Crypto (10 uM) Mean % inhibition” value is “X* (Mean or standard deviation are negative but not significantly different from the control to be a growth promoter)”. Moreover, the “Giardia (16 uM) Mean % inhibition” value in assay [2] is “X* (Mean or standard deviation are negative but not significantly different from the control to be a growth promoter)”.
For `CCCCS(=O)(=O)Nc1ccc2cnn(C)c2c1` [MMV687145], in assay [1], the “Crypto (10 uM) Mean % inhibition” value is 32%. For the same compound, the “Giardia (16 uM) Mean % inhibition” value in assay [2] is 56%.
Turning to `Cc1cc(C)c2cc(C(=O)NC3CCCCCCC3)[nH]c2c1` [MMV687146], the “Crypto (10 uM) Mean % inhibition” value in assay [1] was 33%. For the same compound, the “Giardia (16 uM) Mean % inhibition” value in assay [2] was found to be 15%.
Take `COc1ccc(Cn2cnc3c(-c4ccco4)nc(Cl)nc32)cc1` [MMV687170]: in assay [1], the “Crypto (10 uM) Mean % inhibition” value is on record as 77%. Moreover, in assay [2], the “Giardia (16 uM) Mean % inhibition” value is given as 40%.
For the compound `O=C(C1CCN(c2cc(-n3cccc3)ncn2)CC1)N1CCc2ccccc2C1` [MMV687172], the “Crypto (10 uM) Mean % inhibition” value in assay [1] was 48%. In assay [2], the “Giardia (16 uM) Mean % inhibition” value was “X* (Mean or standard deviation are negative but not significantly different from the control to be a growth promoter)”.
Regarding `CCc1ccc([C@@H]2C[C@H](C(F)(F)F)n3ncc(C(=O)NCc4ccc(OC)cc4)c3N2)cc1` [MMV687180], in assay [1], the “Crypto (10 uM) Mean % inhibition” value is recorded as “X* (Mean or standard deviation are negative but not significantly different from the control to be a growth promoter)”. For the same compound, in assay [2], the “Giardia (16 uM) Mean % inhibition” value is on record as 23%.
With `COc1ccc2nc(C)cc(OCC(=O)Nc3ccccc3OC)c2c1` [MMV687188], the “Crypto (10 uM) Mean % inhibition” value in assay [1] is given as 38%. Further, the “Giardia (16 uM) Mean % inhibition” value in assay [2] was 28%.
Regarding `COc1ccc2nc(C)cc(OCC(=O)NCc3ccccc3)c2c1` [MMV687189], the “Crypto (10 uM) Mean % inhibition” value in assay [1] is on record as 23%. For the same compound, the “Giardia (16 uM) Mean % inhibition” value in assay [2] is on record as 16%.
For `CC(C)(C(=O)Nc1ccc(F)cc1)n1cc(-c2ccccc2F)cn1` [MMV687239], the “Crypto (10 uM) Mean % inhibition” value in assay [1] is on record as 59%. For the same compound, the “Giardia (16 uM) Mean % inhibition” value in assay [2] is listed as 39%.
In the same order, the values of `NC(=O)c1cc(Br)ccc1OCCOc1ccccc1` [MMV687243] are 77% and 66%.
Consider `CN1CCN(S(=O)(=O)c2ccc(-c3ccc4c(Nc5ccc6n[nH]nc6c5)ccnc4c3)cc2)CC1` [MMV687246], for which the “Crypto (10 uM) Mean % inhibition” value in assay [1] is “X* (Mean or standard deviation are negative but not significantly different from the control to be a growth promoter)”. Also, the “Giardia (16 uM) Mean % inhibition” value in assay [2] is reported as 30%.
Turning to `Nc1nc2cc(-c3cncc(Oc4ccc(F)cc4)c3)ccc2[nH]1` [MMV687248], the “Crypto (10 uM) Mean % inhibition” value in assay [1] is on record as 72%. In addition, the “Giardia (16 uM) Mean % inhibition” value in assay [2] worked out at 22%.
As for `Cn1c(=O)c2c(S(C)(=O)=O)snc2n(C)c1=O` [MMV687251], the “Crypto (10 uM) Mean % inhibition” value in assay [1] stood at 76%. The “Giardia (16 uM) Mean % inhibition” value in assay [2] came out at 7.44%.
As for `CCCCc1ccc(C(=O)Nc2nccc3ccccc23)nc1` [MMV687254], the “Crypto (10 uM) Mean % inhibition” value in assay [1] stood at 77%. Besides, the “Giardia (16 uM) Mean % inhibition” value in assay [2] is “X* (Mean or standard deviation are negative but not significantly different from the control to be a growth promoter)”.
In the case of `CC(C)=CCC/C(C)=C\CNCCNC1C2CC3CC(C2)CC1C3` (stereo not shown) [MMV687273], the “Crypto (10 uM) Mean % inhibition” value in assay [1] is 35%. The “Giardia (16 uM) Mean % inhibition” value in assay [2] was determined as 89%.
As to `CCc1nc2ccc(Cl)cn2c1C(=O)NCc1ccc(N2CCC(c3ccc(OC(F)(F)F)cc3)CC2)cc1` [MMV687696], the “Crypto (10 uM) Mean % inhibition” value in assay [1] is on record as 21%. In addition, the “Giardia (16 uM) Mean % inhibition” value in assay [2] is on record as 26%.
For `O=C(NCc1cc(Cl)cc(Cl)c1)c1c(C(F)(F)F)nc2ccccn12` [MMV687699], the “Crypto (10 uM) Mean % inhibition” value in assay [1] came to 32%. The “Giardia (16 uM) Mean % inhibition” value in assay [2] worked out at 16%.
Regarding `Nc1ncnc2c1ncn2[C@@H]1O[C@H](COS(=O)(=O)NC(=O)c2ccccc2O)[C@@H](O)[C@H]1O` [MMV687700], the “Crypto (10 uM) Mean % inhibition” value in assay [1] is “X* (Mean or standard deviation are negative but not significantly different from the control to be a growth promoter)”. The “Giardia (16 uM) Mean % inhibition” value in assay [2] came out at 15%.
Take `COc1cccc(-c2nc3c(N4CCCC4)cccc3n2CC2CCCN2)n1` (stereo not shown) [MMV687703]: the “Crypto (10 uM) Mean % inhibition” value in assay [1] came to 77%. Further, the “Giardia (16 uM) Mean % inhibition” value in assay [2] was 26%.
In the same order, the values of `c1ccc(Oc2ccc(-c3cc(N4CCNCC4)[nH]n3)cc2)cc1` [MMV687706] are “X* (Mean or standard deviation are negative but not significantly different from the control to be a growth promoter)” and 30%.
On to `O=C1O[C@@H](CO)CN1c1cc(F)c(C2=CCN(Cc3ccccc3)CC2)c(F)c1` [MMV687729], for which the “Crypto (10 uM) Mean % inhibition” value in assay [1] was 74%. Also, the “Giardia (16 uM) Mean % inhibition” value in assay [2] amounted to 25%.
The like results for `CCCCOC(=O)Nc1cc2[nH]c(C3CCCCC3)nc2cc1N1CCCC1` [MMV687730] were, in that order, 61% and 24%.
Take `Cc1cc(OCC(=O)NCc2ccccc2)c2cc(Br)ccc2n1` [MMV687747]: the “Crypto (10 uM) Mean % inhibition” value in assay [1] turned out to be 54%. In addition, the “Giardia (16 uM) Mean % inhibition” value in assay [2] amounted to 32%.
`c1ccc(C[C@@H]2CN(c3nccc(Oc4ccc(-n5ccnc5)cc4)n3)CCN2)cc1` [MMV687749]: the “Crypto (10 uM) Mean % inhibition” value in assay [1] is given as 58%. For the same compound, in assay [2], the “Giardia (16 uM) Mean % inhibition” value stood at 24%.
In the same order, the values of `c1ccc(Oc2ccc(-c3cc(C4CCOCC4)[nH]n3)cc2)cc1` [MMV687762] are 68% and “X* (Mean or standard deviation are negative but not significantly different from the control to be a growth promoter)”.
The like results for `Cc1cnc(N2CCN[C@@H](Cc3ccccc3)C2)nc1Oc1ccc(-n2ccnc2)cc1` [MMV687765] were, in that order, 39% and 49%.
The like results for `CC1(C)OB(O)c2ccc(C3=NOC(c4cc(Cl)c(F)c(Cl)c4)(C(F)(F)F)C3)cc21` (stereo not shown) [MMV687775] were, in that order, 56% and “X* (Mean or standard deviation are negative but not significantly different from the control to be a growth promoter)”.
For `Cc1cc(C2=NOC(c3cc(Cl)c(F)c(Cl)c3)(C(F)(F)F)C2)ccc1C(=O)NCc1ccc2c(c1)C(C)(C)OB2O` (stereo not shown) [MMV687776], the “Crypto (10 uM) Mean % inhibition” value in assay [1] was 83%. For the same compound, the “Giardia (16 uM) Mean % inhibition” value in assay [2] is recorded as 27%.
For `CC1(C)Cc2c(c(N3CCOCC3)nc3snc(Br)c23)CO1` [MMV687794], the “Crypto (10 uM) Mean % inhibition” value in assay [1] is given as “X* (Mean or standard deviation are negative but not significantly different from the control to be a growth promoter)”. The “Giardia (16 uM) Mean % inhibition” value in assay [2] was determined as 17%.
Consider `NCCC(O)C(=O)N[C@@H]1C[C@H](N)[C@@H](OC2O[C@H](CN)[C@@H](O)[C@H](O)[C@H]2O)[C@H](O)C1OC1O[C@H](CO)[C@@H](O)[C@H](N)[C@H]1O` (stereo partly shown) [MMV687796], for which, in assay [1], the “Crypto (10 uM) Mean % inhibition” value is 82%. For the same compound, the “Giardia (16 uM) Mean % inhibition” value in assay [2] was “X* (Mean or standard deviation are negative but not significantly different from the control to be a growth promoter)”.
With `C[C@H]1COc2c(N3CCN(C)CC3)c(F)cc3c(=O)c(C(=O)O)cn1c23` [MMV687798], the “Crypto (10 uM) Mean % inhibition” value in assay [1] is reported as 50%. The “Giardia (16 uM) Mean % inhibition” value in assay [2] is 61%.
With `CC[C@H](CO)NCCN[C@H](CC)CO` [MMV687801], the “Crypto (10 uM) Mean % inhibition” value in assay [1] turned out to be 8%. For the same compound, in assay [2], the “Giardia (16 uM) Mean % inhibition” value is on record as “X* (Mean or standard deviation are negative but not significantly different from the control to be a growth promoter)”.
